Source: ChEMBL document CHEMBL1127423, “An evaluation of the antirhinoviral activity of acetylfuran replacements for 3-methylisoxazoles. Are 2-acetylfurans bioisosteres for 3-methylisoxazoles?” (J Med Chem, 1994)
Values after ≈ are worked out from the molar mass of the structure shown. Active and inactive are the calls of the source. The rule behind the calls is not given here.

What was measured:
Human rhinovirus sp. [1] = experiment: Antirhinoviral activity calculated for mean of fifteen serotypes (HRV-1A, -1B, -2, -6, -14, -15, -21, -22, -25, -30, -41, --50, -67, -86, -89); format: functional
Human rhinovirus sp. [2] = experiment: Compound was tested in vitro for minimal inhibitory constant against 80% of fifteen human rhinovirus serotypes
Human rhinovirus sp. [3] = experiment: tested for minimal inhibitory concentration against Human rhinovirus serotype 67 by plaque reduction assay; format: functional
Human rhinovirus sp. [4] = experiment: tested for minimal inhibitory concentration against Human rhinovirus serotype 15 by plaque reduction assay; format: functional
Human rhinovirus sp. [5] = experiment: tested for minimal inhibitory concentration against Human rhinovirus serotype 1A by plaque reduction assay; format: functional
Human rhinovirus sp. [6] = experiment: tested for minimal inhibitory concentration against Human rhinovirus serotype 22 by plaque reduction assay; format: functional
Human rhinovirus sp. [7] = experiment: tested for minimal inhibitory concentration against Human rhinovirus serotype 2 by plaque reduction assay; format: functional
Human rhinovirus sp. [8] = experiment: tested for minimal inhibitory concentration against Human rhinovirus serotype 21 by plaque reduction assay; format: functional
Human rhinovirus sp. [9] = experiment: tested for minimal inhibitory concentration against Human rhinovirus serotype 6 by plaque reduction assay; format: functional
Human rhinovirus sp. [10] = experiment: Tested for in vitro antiviral activity against Human rhinovirus (HRV)-14; format: functional
Human rhinovirus sp. [11] = experiment: tested for minimal inhibitory concentration against Human rhinovirus serotype 25 by plaque reduction assay; format: functional
Human rhinovirus sp. [12] = experiment: tested for minimal inhibitory concentration against Human rhinovirus serotype 1B by plaque reduction assay; format: functional
Human rhinovirus sp. [13] = experiment: tested for minimal inhibitory concentration against Human rhinovirus serotype 30 by plaque reduction assay; format: functional
Human rhinovirus sp. [14] = experiment: tested for minimal inhibitory concentration against Human rhinovirus serotype 89 by plaque reduction assay; format: functional
Human rhinovirus sp. [15] = experiment: tested for minimal inhibitory concentration against Human rhinovirus serotype 41 by plaque reduction assay; format: functional
Human rhinovirus sp. [16] = experiment: tested for minimal inhibitory concentration against Human rhinovirus serotype 14 by plaque reduction assay; format: functional
Human rhinovirus sp. [17] = experiment: tested for minimal inhibitory concentration against Human rhinovirus serotype 50 by plaque reduction assay; format: functional
Human rhinovirus sp. [18] = experiment: tested for minimal inhibitory concentration against Human rhinovirus serotype 86 by plaque reduction assay; format: functional
Human rhinovirus sp. [19] = experiment: Tested for minimal inhibitory concentration against Human rhinovirus serotype 1B by plaque reduction assay; inactive; format: functional, organism-based
Human rhinovirus sp. [20] = experiment: Tested for minimal inhibitory concentration against Human rhinovirus serotype 67 by plaque reduction assay; format: functional
Human rhinovirus sp. [21] = experiment: Antirhinoviral activity calculated for mean of fifteen serotypes (HRV-1A, -1B, -2, -6, -14, -15, -21, -22, -25, -30, -41, --50, -67, -86, -89); inactive against HRV-1A, -6, -14,-67; format: functional, organism-based
Human rhinovirus sp. [22] = experiment: Tested for minimal inhibitory concentration against Human rhinovirus serotype 86 by plaque reduction assay; format: functional
Human rhinovirus sp. [23] = experiment: Tested for minimal inhibitory concentration against Human rhinovirus serotype 15 by plaque reduction assay; format: functional
Human rhinovirus sp. [24] = experiment: Tested for minimal inhibitory concentration against Human rhinovirus serotype 41 by plaque reduction assay; inactive; format: functional, organism-based
Human rhinovirus sp. [25] = experiment: Tested for minimal inhibitory concentration against Human rhinovirus serotype 89 by plaque reduction assay; format: functional
Human rhinovirus sp. [26] = experiment: Tested for minimal inhibitory concentration against Human rhinovirus serotype 14 by plaque reduction assay; format: functional
Human rhinovirus sp. [27] = experiment: Tested for minimal inhibitory concentration against Human rhinovirus serotype 25 by plaque reduction assay; inactive; format: functional, organism-based
Human rhinovirus sp. [28] = experiment: Tested for minimal inhibitory concentration against Human rhinovirus serotype 50 by plaque reduction assay; format: functional
Human rhinovirus sp. [29] = experiment: Tested for minimal inhibitory concentration against Human rhinovirus serotype 1A by plaque reduction assay; format: functional
Human rhinovirus sp. [30] = experiment: Tested for minimal inhibitory concentration against Human rhinovirus serotype 22 by plaque reduction assay; format: functional
Human rhinovirus sp. [31] = experiment: Tested for minimal inhibitory concentration against Human rhinovirus serotype 6 by plaque reduction assay; format: functional
Human rhinovirus sp. [32] = experiment: Tested for minimal inhibitory concentration against Human rhinovirus serotype 2 by plaque reduction assay; format: functional
Human rhinovirus sp. [33] = experiment: Tested for minimal inhibitory concentration against Human rhinovirus serotype 30 by plaque reduction assay; format: functional
Human rhinovirus sp. [34] = experiment: Tested for minimal inhibitory concentration against Human rhinovirus serotype 21 by plaque reduction assay; format: functional
[35] = Partition coefficient (logP) (HPLC); format: physicochemical; settings: octanol/water
Human rhinovirus sp. [36] = experiment: Tested for in vitro antiviral activity against Human rhinovirus (HRV)-14; inactive against HRV-1A, -6, -14,-67; format: functional, organism-based
Human rhinovirus sp. [37] = experiment: Compound was tested in vitro for minimal inhibitory constant against HRV-14; inactive against HRV-1A, -6, -14,-67; format: functional, organism-based
Human rhinovirus sp. [38] = experiment: tested for in vitro antiviral activity against Human rhinovirus (HRV)-14; format: functional
Human rhinovirus sp. [39] = experiment: Compound was tested in vitro for minimal inhibitory constant against HRV-14; IA= Inactive; format: functional, organism-based
Human rhinovirus sp. [40] = experiment: Compound was tested in vitro for minimal inhibitory constant against HRV-14; high capacity tissue culture infectious dose; format: functional, organism-based
Human rhinovirus sp. [41] = experiment: Antirhinoviral activity calculated for mean of fifteen serotypes (HRV-1A, -1B, -2, -6, -14, -15, -21, -22, -25, -30, -41, --50, -67, -86, -89); inactive against HRV-6,-41,-67,-86; format: functional, organism-based

CC(=O)c1ccc(CCCCCOc2ccc(C3=NCCO3)cc2)o1
Activity (Human rhinovirus sp. [1]): 0.9 µM | MIC80 (Human rhinovirus sp. [2]): 1 µM (≈ 0.341 µg/mL) | MIC (Human rhinovirus sp. [3]): 1 µM (≈ 0.341 µg/mL) | MIC (Human rhinovirus sp. [4]): 0.7 µM (≈ 0.239 µg/mL) | MIC (Human rhinovirus sp. [5]): 0.2 µM (≈ 0.0683 µg/mL) | MIC (Human rhinovirus sp. [6]): 1.6 µM (≈ 0.546 µg/mL) | MIC (Human rhinovirus sp. [7]): 0.5 µM (≈ 0.171 µg/mL) | MIC (Human rhinovirus sp. [8]): 0.4 µM (≈ 0.137 µg/mL) | MIC (Human rhinovirus sp. [9]): 0.3 µM (≈ 0.102 µg/mL) | Activity (Human rhinovirus sp. [10]): 1.1 µM | MIC (Human rhinovirus sp. [11]): 4.5 µM (≈ 1.54 µg/mL) | MIC (Human rhinovirus sp. [12]): 0.3 µM (≈ 0.102 µg/mL) | MIC (Human rhinovirus sp. [13]): 0.1 µM (≈ 0.0341 µg/mL) | MIC (Human rhinovirus sp. [14]): 0.05 µM (≈ 0.0171 µg/mL) | MIC (Human rhinovirus sp. [15]): 2.2 µM (≈ 0.751 µg/mL) | MIC (Human rhinovirus sp. [16]): 1 µM (≈ 0.341 µg/mL) | MIC (Human rhinovirus sp. [17]): 0.2 µM (≈ 0.0683 µg/mL) | MIC (Human rhinovirus sp. [18]): 0.4 µM (≈ 0.137 µg/mL)

Cc1cc(CCCCCOc2ccc(C3=NCCO3)cc2)on1
MIC (Human rhinovirus sp. [19]): inactive | MIC80 (Human rhinovirus sp. [2]): 7 µM (≈ 2.2 µg/mL) | MIC (Human rhinovirus sp. [20]): 2.4 µM (≈ 0.755 µg/mL) | Activity (Human rhinovirus sp. [21]): inactive | MIC (Human rhinovirus sp. [22]): 0.1 µM (≈ 0.0314 µg/mL) | MIC (Human rhinovirus sp. [23]): 1.5 µM (≈ 0.472 µg/mL) | MIC (Human rhinovirus sp. [24]): inactive | MIC (Human rhinovirus sp. [25]): 0.4 µM (≈ 0.126 µg/mL) | MIC (Human rhinovirus sp. [26]): 0.7 µM (≈ 0.22 µg/mL) | MIC (Human rhinovirus sp. [27]): inactive | MIC (Human rhinovirus sp. [28]): 1.5 µM (≈ 0.472 µg/mL) | MIC (Human rhinovirus sp. [29]): 7 µM (≈ 2.2 µg/mL) | MIC (Human rhinovirus sp. [30]): 0.9 µM (≈ 0.283 µg/mL) | Activity (Human rhinovirus sp. [10]): 0.7 µM | MIC (Human rhinovirus sp. [31]): 0.06 µM (≈ 0.0189 µg/mL) | MIC (Human rhinovirus sp. [32]): 1.1 µM (≈ 0.346 µg/mL) | MIC (Human rhinovirus sp. [33]): 0.3 µM (≈ 0.0943 µg/mL) | MIC (Human rhinovirus sp. [34]): 1.2 µM (≈ 0.377 µg/mL)

Cc1cc(CCCCCOc2c(C)cc(-c3nnn(C)n3)cc2C)on1
Activity (Human rhinovirus sp. [1]): 0.5 µM | MIC80 (Human rhinovirus sp. [2]): 0.6 µM (≈ 0.213 µg/mL) | logP [35]: 3.6 | Activity (Human rhinovirus sp. [10]): 0.8 µM

CC(=O)c1ccc(CCCOc2c(C)cc(-c3noc(C)n3)cc2C)o1
Activity (Human rhinovirus sp. [1]): 0.2 µM | MIC80 (Human rhinovirus sp. [2]): 0.4 µM (≈ 0.142 µg/mL) | Activity (Human rhinovirus sp. [10]): 0.5 µM

CC(=O)c1ccc(CCCCCOc2c(Cl)cc(C3=NCCO3)cc2Cl)o1
Activity (Human rhinovirus sp. [1]): 0.5 µM | MIC80 (Human rhinovirus sp. [2]): 0.7 µM (≈ 0.287 µg/mL) | logP [35]: 4.6 | Activity (Human rhinovirus sp. [10]): 2 µM

Cc1cc(CCCOc2c(C)cc(-c3nnn(C)n3)cc2C)on1
Activity (Human rhinovirus sp. [1]): 0.5 µM | MIC80 (Human rhinovirus sp. [2]): 0.4 µM (≈ 0.131 µg/mL) | logP [35]: 3.2 | Activity (Human rhinovirus sp. [10]): 1.7 µM

Cc1cc(CCCOc2c(C)cc(-c3noc(C)n3)cc2C)on1
Activity (Human rhinovirus sp. [1]): 0.1 µM | MIC80 (Human rhinovirus sp. [2]): 0.2 µM (≈ 0.0655 µg/mL) | Activity (Human rhinovirus sp. [10]): 0.2 µM

CC(=O)c1ccc(CCCCCOc2c(Br)cc(C3=NCCO3)cc2Br)o1
Activity (Human rhinovirus sp. [1]): 0.7 µM | MIC80 (Human rhinovirus sp. [2]): 0.9 µM (≈ 0.449 µg/mL) | Activity (Human rhinovirus sp. [10]): 3.3 µM

Cc1ccc(CCCOc2c(C)cc(-c3noc(C)n3)cc2C)o1
Activity (Human rhinovirus sp. [21]): inactive | Activity (Human rhinovirus sp. [36]): inactive | Activity (Human rhinovirus sp. [37]): inactive

CC(=O)c1ccc(CCCOc2c(C)cc(-c3nnn(C)n3)cc2C)o1
Activity (Human rhinovirus sp. [1]): 0.3 µM | MIC80 (Human rhinovirus sp. [2]): 0.5 µM (≈ 0.177 µg/mL) | logP [35]: 3.2 | Activity (Human rhinovirus sp. [10]): 0.5 µM

CC(=O)c1ccc(CCCCCOc2c(C)cc(-c3nnn(C)n3)cc2C)o1
Activity (Human rhinovirus sp. [1]): 0.6 µM | MIC80 (Human rhinovirus sp. [2]): 0.8 µM (≈ 0.306 µg/mL) | logP [35]: 3.7 | Activity (Human rhinovirus sp. [10]): 1.2 µM

Cc1cc(CCCCCOc2c(Cl)cc(C3=NCCO3)cc2Cl)on1 [WIN-54954]
Activity (Human rhinovirus sp. [1]): 0.7 µM | MIC80 (Human rhinovirus sp. [2]): 0.9 µM (≈ 0.345 µg/mL) | logP [35]: 4.6 | Activity (Human rhinovirus sp. [10]): 2.3 µM

Cc1cc(CCCCCOc2c(Br)cc(C3=NCCO3)cc2Br)on1
Activity (Human rhinovirus sp. [1]): 0.6 µM | MIC80 (Human rhinovirus sp. [2]): 1.4 µM (≈ 0.661 µg/mL) | Activity (Human rhinovirus sp. [10]): 2 µM

Cc1cc(-c2nnn(C)n2)cc(C)c1OCCCCCc1ccc(C=O)o1
Activity (Human rhinovirus sp. [21]): inactive | Activity (Human rhinovirus sp. [38]): 27 µM | logP [35]: 3.5 | MIC80 (Human rhinovirus sp. [39]): inactive

Cc1ccc(CCCOc2c(C)cc(-c3nnn(C)n3)cc2C)o1
Activity (Human rhinovirus sp. [10]): 30 µM | MIC80 (Human rhinovirus sp. [40]): high capacity tissue culture infectious dose | Activity (Human rhinovirus sp. [41]): inactive
